The numbers were not newly measured in paper PMC10530720, “Antimicrobial Activity and Toxicity of Newly Synthesized 4-[4-(benzylamino)butoxy]-9H-carbazole Derivatives” (International Journal of Molecular Sciences, 2023), which cites them from elsewhere.

Data set [1] has as its system E. coli. Also noted: method as in Salih et al. 12. To be noted: ref Salih et al. 12; cited from earlier work.
The test system of data set [2] is C. albicans. Also noted: method as in PMID 18570365. To be noted: cited from earlier work.
Data set [3] has as its system S. aureus. Also noted: method as in Salih et al. 12. To be noted: ref Salih et al. 12; cited from earlier work.
Data set [4] deals with A. fumigatus. Set-up: method as in PMID 18570365. The settings on record: cited from earlier work.
Data set [5] has as its system S. aureus. Set-up: method as in PMID 34884610. The settings on record: cited from earlier work.
Data set [6] relates to E. coli. Also noted: method as in PMID 34884610. The settings on record: highest tested concentration; cited from earlier work.

In brackets after ≈: the same amount, converted by molar mass. Where two headings read alike, the source gives them in different places.

Broadly, the MIC is the smallest concentration in the dilution series that meets the test's criterion for growth inhibition. Take `CC1=NN(c2ccccc2)C(=O)C1=NNNC(=O)Cn1c2ccccc2c2ccccc21` [derivative 8, (4-[3-(9H-Carbazol-9-yl-acetyl)triazanylidene]-5-methyl-2-phenyl-2,4-dihydro-3H-pyrazol-3-one)]: the MIC in data set [1] is 6.4 µg/mL (≈ 15.1 µM); in data set [2], 9.6 µg/mL (≈ 22.6 µM); in data set [3], 1.1 µg/mL (≈ 2.59 µM); in data set [4], 10.3 µg/mL (≈ 24.3 µM).

With `c1ccc(CNCCCCOc2cccc3[nH]c4ccccc4c23)cc1` [parent compound, 4-[4-(benzylamino)butoxy]-9H-carbazole], in data set [5] (20 µg/mL), the “reduction in bacterial growth (S. aureus)” value is listed as 22%. For the same compound, the MIC in data set [5] (S. aureus) was 30 µg/mL (≈ 87.1 µM). The “inhibition of E. coli growth” value in data set [6] is 10%.
